8 compounds from PubChem BioAssay AID1259407 (Chemical Carcinogenesis Research Information System (CCRIS), 2018) can be followed below.

Activity calls are given as the source filed them. The rule behind the calls is not given here.

The test system of the data set is CCRIS mutagenicity, Ames/micronucleus/aberration tests. In words: CCRIS mutagenicity studies.
The mark [1] stands for this setting: Test System: AMES SALMONELLA TYPHIMURIUM, Strain/Indicator: TA98, Metabolic Activation: NONE, Method: PREINCUBATION
Where [2] appears, read: Test System: AMES SALMONELLA TYPHIMURIUM, Strain/Indicator: TA98, Metabolic Activation: NONE, Method: STANDARD PLATE.
The mark [3] stands for this setting: Test System: AMES SALMONELLA TYPHIMURIUM, Strain/Indicator: TA100, Metabolic Activation: NONE, Method: STANDARD PLATE.
Where [4] appears, read: Test System: AMES SALMONELLA TYPHIMURIUM, Strain/Indicator: TA98, Metabolic Activation: RAT, LIVER, S-9, AROCLOR 1254, Method: STANDARD PLATE.
[5] abbreviates: Test System: AMES SALMONELLA TYPHIMURIUM, Strain/Indicator: TA100, Metabolic Activation: RAT, LIVER, S-9, AROCLOR 1254, Method: STANDARD PLATE.

With `CCNC(=O)NC(=O)/C(C#N)=N/OC`, the mutagenic call is “active; positive (structural changes)” (End Point: In vitro chromosomal aberrations, Test System: Human lymphocytes, Metabolic Activation: None); “active; positive (structural changes)” (End Point: In vitro chromosomal aberrations, Test System: Human lymphocytes, Metabolic Activation: S-9 (DPR evaluator did not provide additional details)); “inactive; negative, significant toxicity (m and f) and early deaths (f only) as high dose” (End Point: In vivo micronucleus, Test System: Bone marrow polychromatic erythrocytes, Species: Mouse, Strain/Sex: Female, Route: Oral (gavage)); “inactive; negative, significant toxicity (m and f) and early deaths (f only) as high dose” (End Point: In vivo micronucleus, Test System: Bone marrow polychromatic erythrocytes, Species: Mouse, Strain/Sex: Male, Route: Oral (gavage)); “inactive; negative, testing into the cytotoxic range” (Test System: Ames Salmonella typhimurium, Strain/Indicator: TA97, Metabolic Activation: None, Method: Plate incorporation); “inactive; negative, testing into the cytotoxic range” (Test System: Ames Salmonella typhimurium, Strain/Indicator: TA97, Metabolic Activation: S-9 (DPR evaluator did not provide additional information), Method: Plate incorporation). Besides, the mutagenic call is “inactive; negative, testing into the cytotoxic range” (Test System: Ames Salmonella typhimurium, Strain/Indicator: TA98, Metabolic Activation: None, Method: Plate incorporation); “inactive; negative, testing into the cytotoxic range” (Test System: Ames Salmonella typhimurium, Strain/Indicator: TA98, Metabolic Activation: S-9 (DPR evaluator did not provide additional information), Method: Plate incorporation); “inactive; negative, testing into the cytotoxic range” (Test System: Ames Salmonella typhimurium, Strain/Indicator: TA100, Metabolic Activation: None, Method: Plate incorporation); “inactive; negative, testing into the cytotoxic range” (Test System: Ames Salmonella typhimurium, Strain/Indicator: TA100, Metabolic Activation: S-9 (DPR evaluator did not provide additional information), Method: Plate incorporation); “inactive; negative, testing into the cytotoxic range” (Test System: Ames Salmonella typhimurium, Strain/Indicator: TA1535, Metabolic Activation: None, Method: Plate incorporation); “inactive; negative, testing into the cytotoxic range” (Test System: Ames Salmonella typhimurium, Strain/Indicator: TA1535, Metabolic Activation: S-9 (DPR evaluator did not provide additional information), Method: Plate incorporation). Moreover, the mutagenic call (Test System: Chinese hamster ovary cells, Strain/Indicator: CHO Cells (HPRT) /6-Thioguanine, Metabolic Activation: None, Method: Preincubation) was “inactive; negative”; the mutagenic call (Test System: Chinese hamster ovary cells, Strain/Indicator: CHO Cells (HPRT)/6-Thioguanine, Metabolic Activation: S-9 (DPR evaluator did not provide additional information), Method: Preincubation) is “inactive; negative”; the mutagenic call (Test System: Male rat spermatocytes, Strain/Indicator: Thymidine incorporation, Metabolic Activation: None, Method: Autoradiography) is “inactive; negative, mortality and clinical signs of toxicity observed”; the mutagenic call (Test System: UDS Male rat hepatocytes, Strain/Indicator: Thymidine incorporation, Metabolic Activation: None, Method: Autoradiography) was “inactive; negative, mortality and clinical signs of toxicity observed”; the mutagenic call (Test System: UDS Rat hepatocytes, Strain/Indicator: Thymidine incorporation, Metabolic Activation: None, Method: Autoradiography) is “active; positive, statistically significant but no linear dose response”.

Turning to `O=[N+]([O-])c1ccc(CO)c([N+](=O)[O-])c1`, the mutagenic call reads like this: under setting [1], “active; positive”; (Test System: AMES SALMONELLA TYPHIMURIUM, Strain/Indicator: TA98, Metabolic Activation: RAT, LIVER, S-9, AROCLOR, Method: PREINCUBATION) “active; positive”; (Test System: AMES SALMONELLA TYPHIMURIUM, Strain/Indicator: TA98, Metabolic Activation: RAT, LIVER, S-9, PHENOBARBITAL AND 5,6-BENZOFLAVONE, Method: PREINCUBATION) “active; positive”; (Test System: AMES SALMONELLA TYPHIMURIUM, Strain/Indicator: TA100, Metabolic Activation: NONE, Method: PREINCUBATION) “active; positive”; (Test System: AMES SALMONELLA TYPHIMURIUM, Strain/Indicator: TA100, Metabolic Activation: RAT, LIVER, S-9, PHENOBARBITAL AND 5,6-BENZOFLAVONE, Method: PREINCUBATION) “active; positive”.

`CCc1ccccc1NC(=O)c1csc([N+](=O)[O-])c1`: the mutagenic call under setting [2] was “active; positive” and the mutagenic call under setting [3] was “active; positive”.

With `CN(N=O)C(=O)Nc1ccc(Br)cc1`, the mutagenic call (End Point: IN VITRO CHROMOSOMAL ABERRATIONS, Test System: CHINESE HAMSTER V79-E CELLS, Metabolic Activation: NONE) is “active; weakly positive”.

For the compound `COc1cc2c3c(c1O)-c1cc4c(cc1C[C@@H]3N(C)CC2)OCO4`, the mutagenic call (Test System: AMES SALMONELLA TYPHIMURIUM, Strain/Indicator: TA100, Metabolic Activation: RAT, LIVER, S-9, PHENOBARBITAL AND BETA-NAPHTHOFLAVONE, Method: PREINCUBATION) was “inactive; negative”.

Take `O=C(c1ccccc1)[C@H]1O[C@H]1c1ccc(F)cc1`: the mutagenic call is “inactive; negative” (Test System: AMES SALMONELLA TYPHIMURIUM, Strain/Indicator: TA98, Metabolic Activation: NONE, Method: PREINCUBATION (PHOSPHATE-BUFFERED KCL OR SOLUTE-FREE WATER MEDIA)); “inactive; negative” under setting [2]; “inactive; negative” under setting [4]; “inactive; negative” (Test System: AMES SALMONELLA TYPHIMURIUM, Strain/Indicator: TA100, Metabolic Activation: NONE, Method: PREINCUBATION (PHOSPHATE-BUFFERED KCL OR SOLUTE-FREE WATER MEDIA)); “inactive; negative” under setting [3]; “inactive; negative” under setting [5]. For the same compound, the mutagenic call (Test System: AMES SALMONELLA TYPHIMURIUM, Strain/Indicator: TA104, Metabolic Activation: NONE, Method: PREINCUBATION (PHOSPHATE-BUFFERED KCL OR SOLUTE-FREE WATER MEDIA)) was “inactive; negative” and the mutagenic call (Test System: CHINESE HAMSTER V-79, Strain/Indicator: V-79 (HPRT)/6-THIOGUANINE, Metabolic Activation: NONE) is “inactive; negative”.

As to `O[C@H]1[C@H]2O[C@H]2c2ccc3c(ccc4ccccc43)c2[C@@H]1O`, the mutagenic call runs as follows: under setting [1], “active; positive”; (Test System: CHINESE HAMSTER V-79, Strain/Indicator: V-79/6-THIOGUANINE, Metabolic Activation: NONE) “active; positive”.

With `O=CC(O)C(O)C(O)CO` (stereo not drawn), the mutagenic call reads like this: under setting [2], “inactive; negative”; under setting [4], “inactive; negative”; under setting [3], “inactive; negative”; under setting [5], “inactive; negative”; (Test System: AMES SALMONELLA TYPHIMURIUM, Strain/Indicator: TA1535, Metabolic Activation: NONE, Method: STANDARD PLATE) “inactive; negative”; (Test System: AMES SALMONELLA TYPHIMURIUM, Strain/Indicator: TA1535, Metabolic Activation: RAT, LIVER, S-9, AROCLOR 1254, Method: STANDARD PLATE) “inactive; negative”. Further, the mutagenic call (Test System: AMES SALMONELLA TYPHIMURIUM, Strain/Indicator: TA1537, Metabolic Activation: NONE, Method: STANDARD PLATE) is “inactive; negative”; the mutagenic call (Test System: AMES SALMONELLA TYPHIMURIUM, Strain/Indicator: TA1537, Metabolic Activation: RAT, LIVER, S-9, AROCLOR 1254, Method: STANDARD PLATE) is “inactive; negative”; the mutagenic call (Test System: AMES SALMONELLA TYPHIMURIUM, Strain/Indicator: TA1538, Metabolic Activation: NONE, Method: STANDARD PLATE) was “inactive; negative”; the mutagenic call (Test System: AMES SALMONELLA TYPHIMURIUM, Strain/Indicator: TA1538, Metabolic Activation: RAT, LIVER, S-9, AROCLOR 1254, Method: STANDARD PLATE) is “inactive; negative”; the mutagenic call (Test System: E. COLI, Strain/Indicator: WP2, Metabolic Activation: NONE, Method: STANDARD PLATE) was “inactive; negative”; the mutagenic call (Test System: E. COLI, Strain/Indicator: WP2, Metabolic Activation: RAT, LIVER, S-9, AROCLOR 1254, Method: STANDARD PLATE) was “inactive; negative”.
